Key:
[1] = tested on: human corneal epithelial (HCE-T) cells; assay: HCE-T cell proliferation, xCELLigence RTCA cell index; type: cell-based; conditions: 72-hour time course; EGF 30.4 pg/ml to 31.2 ng/ml; MLC lysates 0.025-0.75% (v/v) (high speed centrifugation) or 0.22 μm filtered
Procedure: Effect of MLC lysate on proliferation of human corneal epithelial (HCE-T) cells was measured. Briefly, HCE-T cells were plated on to E-Plate 96 (Agilent Technologies, Santa Clara, CA) at 2,500 cells per well in minimal KGM-Gold medium (Lonza, Walkersville, MD). Minimal KGM-Gold medium contains all KGM-Gold BulletKit components except for EGF (positive control), MLC lysates, and/or bovine pituitary extract. For negative control vehicle only, phosphate buffer solution (PBS) was used. After 24 hours, cells were treated with indicated concentrations of MLC lysates, EGF (SinoBiological Inc., Beijing, China) or PBS. The E-plate was then returned to the xCELLigence RTCA instrument for data collection for an additional 48 hours. Area under the curve (AUC) of normalized Cell Index was calculated using RTCA Software Pro and then normalized to vehicle. FIG. 10A illustrates results of a 72-hour time course study of effects of EGF on proliferation of HCE-T cells at a concentration ranging from 30.4 pg/ml to 31.2 ng/ml. FIG. 10B is an alternate representation of FIG. 10A showing normalized area under curved of normalized cell index for each concentration. […] FIG. 11A illustrates results of a 72-hour time course study of effects of MLC Lysates processed with high speed centrifugation on the proliferation of HCE-T cells at a dose ranging from 0.025% (v/v) to 0.75% (v/v). […]

[2] = tested on: rat medial meniscal tear (MMT) model of osteoarthritis (OA); assay: Dynamic weight bearing test in rat MMT osteoarthritis model; type: in vivo; conditions: intraarticular injection on days 7, 14 and 21 after surgery; tested days 7-28
Procedure: (§1) In vivo effect of MLC lysate and PLC in a subject having osteoarthritis was measured. A rat medial meniscal tear (MMT) model of osteoarthritis (OA) was used in an in vivo study for testing efficacy of megakaryocyte derivatives. […] As described in FIG. 13A, Lewis rats were subjected to meniscal tear surgery on day 0. Dynamic weight bearing and electronic Von Frey Filament analyses were conducted at 7, 14, 21 and 28 days following surgery. Subjects were administered with MLC lysates or PLCs by intraarticular injection after DWB and EVFF analysis on days 7, 14 and 21 following surgery. On day 28 following surgery, serum was collected, and animals were sacrificed to allow for joint histology. PRP and recombinant human FGF-18 were used as positive controls. For negative control vehicle only was used. In sum, the study comprised the following groups: No surgery (n=5), MMT Surgery+Vehicle (n=15), MMT Surgery+Platelet-like cells (n=15), MMT Surgery+Platelet-rich plasma (n=15), MMT Surgery+rFGF-18 (n=15), and MMT Surgery+MLC Lysate (n=15).
(§2) FIGS. 13B and 13C illustrate efficacy results of MLC lysate and PLC in the rat medial meniscal tear model of osteoarthritis using dynamic weight bearing test and electronic Von Frey Filament test, respectively.

[3] = tested on: rat medial meniscal tear (MMT) model of osteoarthritis (OA); assay: Electronic Von Frey Filament test in rat MMT osteoarthritis model; type: in vivo; conditions: intraarticular injection on days 7, 14 and 21 after surgery; compared to vehicle
Procedure: as §1, §2

[4] = tested on: rat medial meniscal tear (MMT) model of osteoarthritis (OA); assay: Joint histology in rat MMT osteoarthritis model; type: in vivo; conditions: day 28 after surgery
Procedure: as §1
As outlined in FIG. 13A, a histological analysis of test subjects was performed 28 days following the surgery. […] Additionally, synovitis score wad medial tibial osteophyte measurement was performed based on analysis of histological data.

Substance: EGF: EGF (SinoBiological Inc.) used as positive control for HCE-T proliferation (NSDSECPLSHDGYCLHDGVCMYIEALDKYACNCVVGYIGERCQYRDLKWWELR; Epidermal growth factor; UniProt P01133 971-1023, looked up)
- proliferation of HCE-T cells (AUC of normalized Cell Index, normalized to vehicle) [1]: promotes corneal epithelial cell proliferation in a dose-dependent manner

Substance: recombinant human FGF-18: recombinant human FGF-18 used as positive control in the rat MMT model
- pain profile in dynamic weight bearing testing [2]: progressive increasing signal over time
- electronic von Frey filament thresholds [3]: significant decrease in thresholds
- medial tibial osteophyte measurement compared to vehicle [4]: resulted in a significant increase
- substantial cartilage degeneration width compared to vehicle [4]: significant reduction compared to vehicle treatment
- synovitis score compared to vehicle [4]: significant increase in synovitis score

— US20260124244A1, “MEGAKARYOCYTE DERIVATIVES FOR TREATMENT OF DRY EYE DISEASES” (Stellular Bio, Inc., priority 2023, published 2026)
